Test results: patent publication US20240209028A1, “CNP COMPOUNDS” (priority 2022, published 2024)
Starred links: 1 amine or outer side, 2 acyl side, 3 side chain; linkers in the order of their positions; H or OH if unused. Positions of bridges follow the written chain, without caps; N, C: chain ends. Non-standard residues stand in square brackets, D forms with d. Residues, ends and D or L forms follow the SMILES beside them. *: point of attachment. C18 diacid = O=C(O)CCCCCCCCCCCCCCCCC(=O)*; γGlu = O=C(O)[C@H](CCC(=O)[*:2])N[*:1]; AEEA = NCCOCCOCC(=O)O

Target: T1, human natriuretic peptide receptor 2 (hNPR2) (Homo sapiens, UniProt P20594)
T1 construct: expressed in transfected cells; host or cells: HEK293 (ATCC CRL-1573), clone 35, co-transfected with pGloSensor-42F
T1 sequence (P20594 23-1047): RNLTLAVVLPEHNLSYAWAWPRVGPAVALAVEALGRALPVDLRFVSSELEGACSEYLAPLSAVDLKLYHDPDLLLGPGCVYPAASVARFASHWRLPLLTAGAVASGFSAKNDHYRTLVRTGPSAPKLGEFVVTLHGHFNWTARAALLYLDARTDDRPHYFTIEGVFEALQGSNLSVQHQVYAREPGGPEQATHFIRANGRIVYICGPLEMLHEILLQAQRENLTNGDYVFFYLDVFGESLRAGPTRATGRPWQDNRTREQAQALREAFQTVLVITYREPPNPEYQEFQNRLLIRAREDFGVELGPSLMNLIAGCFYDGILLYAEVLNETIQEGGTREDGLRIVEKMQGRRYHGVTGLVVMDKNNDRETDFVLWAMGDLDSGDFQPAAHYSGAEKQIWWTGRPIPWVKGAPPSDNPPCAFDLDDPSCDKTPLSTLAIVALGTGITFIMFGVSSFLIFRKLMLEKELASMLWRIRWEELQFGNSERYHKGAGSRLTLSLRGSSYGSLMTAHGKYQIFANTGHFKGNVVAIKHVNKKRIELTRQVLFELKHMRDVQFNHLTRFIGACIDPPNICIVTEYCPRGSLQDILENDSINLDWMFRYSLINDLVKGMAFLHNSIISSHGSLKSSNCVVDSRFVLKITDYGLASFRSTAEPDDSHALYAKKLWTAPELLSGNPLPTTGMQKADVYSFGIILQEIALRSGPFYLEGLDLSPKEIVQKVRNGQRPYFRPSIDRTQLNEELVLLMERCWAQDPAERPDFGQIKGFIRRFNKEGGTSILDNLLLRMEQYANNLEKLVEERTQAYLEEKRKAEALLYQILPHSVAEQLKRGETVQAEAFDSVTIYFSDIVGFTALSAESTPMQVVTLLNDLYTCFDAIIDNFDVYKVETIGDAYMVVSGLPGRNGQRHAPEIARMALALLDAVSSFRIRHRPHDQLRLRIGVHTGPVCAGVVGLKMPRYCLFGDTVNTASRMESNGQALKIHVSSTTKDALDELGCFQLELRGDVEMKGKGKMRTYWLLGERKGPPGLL
Test: In vitro hNPR2 activity assay (cGMP GloSensor reporter, HEK293)
Type: cell-based
Details: for hNPR2 0% HSA. [EC50% rel CNP]: potency relative to CNP22 (0065)
Summary of the method: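 Potency is the EC50 from a four-parameter logistic fit, also expressed relative to the in-plate CNP22 control (×100), with at least two replicates. Compounds (ten concentrations, […], HSA-free diluent with 1% OVA, 0.01% Tween20) were incubated 30 min at 37 °C on HEK293 cells co-expressing hNPR2 and a GloSensor cGMP luciferase. Luminescence detected with Bright-Glo.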

Structure (SMILES)	hNPR2 0% HSA. [EC50% rel CNP]	EC50 (0% HSA, HEK293-hNPR2/GloSensor cells)
CC[C@H](C)[C@@H]1NC(=O)[C@H](CCCNC(=N)N)NC(=O)[C@H](CC(=O)O)NC(=O)[C@H](CC(C)C)NC(=O)[C@@H]2CCCN2C(=O)[C@H](CC(C)C)NC(=O)CNC(=O)[C@H](Cc2ccccc2)NC(=O)[C@@H](NC(=O)CNC(=O)[C@H](CCC(N)=O)NC(=O)[C@H](CO)NC(=O)[C@H](CC(C)C)NC(=O)CNC(=O)[C@H](CCCCN)NC(=O)[C@H](CCCCN)NC(=O)[C@H](CCC(N)=O)NC(=O)[C@H](C)NC(=O)CNC(=O)[C@H](CCCCN)NC(=O)[C@H](Cc2ccc(O)cc2)NC(=O)COCCOCCNC(=O)COCCOCCNC(=O)COCCOCCNC(=O)COCCOCCNC(=O)[C@H](CCC(=O)O)NC(=O)[C@H](CCC(=O)O)NC(=O)[C@H](CCC(=O)O)NC(=O)CCCCCCCCCCCCCCCCC(=O)O)CSSC[C@@H](C(=O)O)NC(=O)CNC(=O)[C@H](CC(C)C)NC(=O)CNC(=O)[C@H](CO)NC(=O)[C@H](CC(C)C)NC(=O)[C@H](CO)NC(=O)CNC1=O [compound 1481] ({C18 diacid}-EEE[AEEA][AEEA][AEEA][AEEA]YKGAQKKGLSQGCFGLPLDRIGSLSGLGC-OH; disulfide 20-36)	35.1%	
CC[C@H](C)[C@@H]1NC(=O)[C@H](CCCNC(=N)N)NC(=O)[C@H](CCC(=O)O)NC(=O)[C@H](CC(C)C)NC(=O)[C@@H]2CCCN2C(=O)[C@H](CC(C)C)NC(=O)CNC(=O)[C@H](Cc2ccccc2)NC(=O)[C@@H](NC(=O)CNC(=O)[C@H](CCC(N)=O)NC(=O)[C@H](CO)NC(=O)[C@H](CO)NC(=O)CNC(=O)[C@H](CCCCN)NC(=O)[C@H](CCCCN)NC(=O)[C@H](CCC(N)=O)NC(=O)[C@H](C)NC(=O)CNC(=O)[C@@H]2CCCN2C(=O)[C@H](C)NC(=O)[C@H](CCC(N)=O)NC(=O)CNC(=O)COCCOCCNC(=O)COCCOCCNC(=O)CC[C@H](NC(=O)CCCCCCCCCCCCCCCCC(=O)O)C(=O)O)CSSC[C@@H](C(=O)O)NC(=O)CNC(=O)[C@H](CC(C)C)NC(=O)CNC(=O)[C@H](CO)NC(=O)[C@H](CC(C)C)NC(=O)[C@H](CO)NC(=O)CNC1=O [compound 1486] ({C18 diacid-γGlu-AEEA-AEEA}-GQAPGAQKKGSSQGCFGLPLERIGSLSGLGC-OH; disulfide 15-31; C-terminus assumed)	6.0%	0.14 nM
CC[C@H](C)[C@@H]1NC(=O)[C@H](CCCNC(=N)N)NC(=O)[C@H](CC(=O)O)NC(=O)[C@H](CC(C)C)NC(=O)[C@@H]2CCCN2C(=O)[C@H](CC(C)C)NC(=O)CNC(=O)[C@H](Cc2ccccc2)NC(=O)[C@@H](NC(=O)CNC(=O)[C@H](CCC(N)=O)NC(=O)[C@H](CO)NC(=O)[C@H](CC(C)C)NC(=O)CNC(=O)[C@H](CCCCN)NC(=O)[C@H](CCCCN)NC(=O)[C@H](CCC(N)=O)NC(=O)[C@H](C)NC(=O)CNC(=O)[C@@H]2CCCN2C(=O)[C@H](C)NC(=O)[C@H](CCC(N)=O)NC(=O)CNC(=O)[C@@H]2CCCN2C(=O)[C@H](C)NC(=O)[C@H](CCC(N)=O)NC(=O)CNC(=O)[C@@H]2CCCN2C(=O)[C@H](C)NC(=O)[C@H](CCC(N)=O)NC(=O)CNC(=O)COCCOCCNC(=O)COCCOCCNC(=O)CC[C@H](NC(=O)CCCCCCCCCCCCCCCCC(=O)O)C(=O)O)CSSC[C@@H](C(=O)O)NC(=O)CNC(=O)[C@H](CC(C)C)NC(=O)CNC(=O)[C@H](CO)NC(=O)[C@H](CC(C)C)NC(=O)[C@H](CO)NC(=O)CNC1=O [compound 1487] ({C18 diacid-γGlu-AEEA-AEEA}-GQAPGQAPGQAPGAQKKGLSQGCFGLPLDRIGSLSGLGC-OH; disulfide 23-39)	22.0%	
